Patent US20210008161A1, “METHODS AND COMPOSITIONS FOR IMPROVED HOMOLOGY DIRECTED REPAIR” (CRISPR THERAPEUTICS AG, priority 2019, published 2021)

How the values were obtained:
[1] = test system: HEK293 T cells; experiment: BFP to GFP fluorescent reporter assay of HDR efficiency (AAVS1 locus); type: cell-based, human; conditions: different concentrations/doses, FIG. 1B, 1C
Method: An in vitro assay was conducted to determine the ability of various inhibitors and enhancers to improve the efficiency of HDR repair in HEK293 T cells. Specifically, a fluorescent reporter-based screening approach was developed to identify molecules that enhance gene-editing by HDR. A reporter system was generated in HEK293 T cells comprising a genomic AAVS1 locus that encoded either a blue fluorescent protein (BFP) or a green fluorescent protein (GFP) within the AAVS1 locus. A gene encoding BFP can be converted to a gene encoding GFP by substitution of cytosine at position 199 to uridine (e.g., a C to U transition at position 199). By introducing a DSB within the BFP gene using a CRISPR/Cas9 gene-editing system, a homology donor DNA encoding the nucleotide substitution can be used to edit the BFP gene to a GFP gene by HDR repair. Thus, a gene edit that induces a C to U transition at position 199 results in a change in cellular fluorescence. A change in the fluorescence of the cell measured by flow cytometry can be used to quantify efficiency of HDR repair. Additionally, the reverse gene edit can be performed for an AAVS1 locus encoding a GFP gene, wherein a GFP can be converted to BFP by substitution of uridine at position 199 to cytosine.
To create the reporter system, an AAV-based homology donor DNA encoding either BFP or GFP was created. The AAV-BFP or AAV-GFP donor was flanked by homology arms that were 1000 base pairs in length and expression of BFP or GFP was driven by the MND promoter (e.g., a synthetic promoter that contains the U3 region of a modified Moloney murine leukemia virus long term terminal repeat with myeloproliferative sarcoma virus enhancer and deleted negative control region, SEQ ID NO: 58). The viral DNA was packaged into capsids of adeno-associated virus serotype 6 (AAV6) vector. Either the BFP or GFP donor was introduced using the AAV6 vector into the AAVS1 locus in HEK293 T cells by homologous recombination using CRISPR-Cas9 as follows: purified Cas9 protein was complexed with two different single gRNAs (sgRNAs) targeting the AAVS1 locus at SEQ ID NO: 3 (spacer sequence identified by SEQ ID NO: 4; gRNA obtained from Maxcyte) or SEQ ID NO: 5 (spacer sequence identified by SEQ ID NO: 6; gRNA obtained from Thermo Fisher). Cas9 protein used in the Exemplary section provided herein refers to Cas9 polypeptide derived from S. pyogenes (SpCas9), unless indicated otherwise.
The Cas9-sgRNA complex was electroporated into the HEK293 T cells using the Lonza Nucleofector program CM-130. Approximately, 2 hours after electroporation, the cells were infected with various viral doses of AAV6 encoding a BFP (SEQ ID NO: 44) or GFP homology donor (SEQ ID NO: 47). One week later, cells were analyzed by flow cytometry to verify integration and expression of BFP or GFP in the AAVS1 locus. HEK293 T cells expressing BFP or GFP were sorted into single cells in 96-well plates. After ˜2 weeks of growth, DNA extracted from individual cells was analyzed for precise integration of the respective BFP or GFP gene into the AAVS1 locus by long-range PCR. This PCR analysis allowed for determination of whether the BFP/GFP gene was integrated in one or both alleles of the AAVS1 locus.
To introduce a gene edit that converts BFP to GFP, cells were electroporated with ribonucleoprotein (RNP) comprised of Cas9 and sgRNA that targets the BFP gene encoded in the AAVS1 locus. The sgRNA targeted a sequence in the BFP gene identified by SEQ ID NO: 7 (sgRNA spacer sequence identified by SEQ ID NO: 8). The sgRNA were prepared using a standard sgRNA cassette specific to SpCas9, as indicated by SEQ ID NO: 2 (wherein a, c, g, u represent 2′ O-methyl phosphorothioate nucleotides; s represents phosphorothioate nucleotides; and A, C, G, U, N represent canonical RNA nucleotides). The gRNAs used in the Exemplary section provided herein were sgRNAs prepared with the SpCas9 sgRNA cassette unless indicated otherwise. […]

[2] = test system: CD34-expressing LT-HSPCs; experiment: HDR insertion of AAV-delivered GFP donor into HBB locus (GFP fluorescence); type: cell-based, human; conditions: HBB locus in LT-HSPCs; any dose tested; data not shown
Method: Frozen CD34-expressing LT-HSPCs derived from plerixafor (i.e., Mozibil®)+GCSF-dual mobilized peripheral blood obtained from healthy human donors were purchased from a commercial vendor. LT-HSPCs were maintained in culture media comprised of the reagents shown in Table 4 and were incubated at 37° C., 5% carbon dioxide, 4% oxygen. […] 2×10^5 cells were edited with 3 μg Cas9 and 3 μg gRNA. The target gene sequence (including target sequence with PAM), R02 spacer sequence, and R02 sgRNA sequence are identified in Table 3.
The cells were transfected with a dsDNA homology donor encoding GFP under a SFFV promoter (SEQ ID NO: 60) that was delivered by AAV (SEQ ID NO: 56). […] The HDR efficiency was determined by measuring the level of GFP fluorescence in the cells following electroporation. To determine the effect of 53BP1 inhibition on HDR efficiency, the 53BP1 inhibitor i53 was introduced as an mRNA-encoded protein to the cells during electroporation with Cas9/gRNA RNP and AAV DNA that serves as a donor for homology directed repair.
The effect of 53BP1 inhibition on HDR efficiency was compared to other mRNA-encoded proteins that inhibit the NHEJ pathway. These included the proteins CYREN1 and CYREN2 that inhibit Ku70/80, a heterodimer that binds DNA blunt ends to prevent processing of 3′ single-stranded DNA tails necessary for HDR repair. Cells were electroporated with RNP, an AAV-GFP homology donor and mRNA encoding either i53 (mRNA ORF shown in SEQ ID NO: 69), CYREN1, or CYREN2.
The effect of treatment with i53 and Nu7441 was compared for improving efficiency of HDR repair of the HBB locus. Cells were treated with different doses of Nu7441 or with mRNA encoding i53 (ORF shown by SEQ ID NO: 69).

Row | SMILES | HDR efficiency [1] | HDR efficiency [2]
1 | CCCCCCNC(=O)Nc1ccc(S(=O)(=O)Nc2ccc(CCNC[C@H](O)COc3ccc(O)cc3)cc2)cc1 [L755,507] | no improvement | –
2 | C[C@]1(c2nc3c(C(N)=O)cccc3[nH]2)CCCN1 [Veliparib] | no improvement | –
3 | Cl.O=c1[nH]c([C@@H]2CCCN2)nc2c1oc1ccc(Cl)cc12 [XL 413, reference compound] | – | no improvement
